pIC50: −log10 of the molar value.

For test [1], the system named is NFκB reporter in 293 cells. Kind of test: NFκB reporter assay in 293 cells stimulated with TNF-a. Type of test: cell-based. The settings on record: 293 cells carrying NFκB reporter construct. From the text:
(§1) NFκB is constitutively activated in many cancers including high grade cervical intraepithelial neoplasia (CIN) and cervical cancer.
On the technique in general: In a reporter assay the amount or activity of a reporter protein is the signal.

Test [2] relates to proteasome function (4Ub-FL reporter) in 293TT cells. The experiment in a line: 4Ub-FL reporter assay of proteasome function in live cells. The settings on record: 293TT cells expressing 4Ub-FL. In kind it is cell-based. From the text:
To measure proteasome function in live cells, we utilized an engineered ubiquitin-firefly (4Ub-FL) reporter in which four copies of mutant ubiquitin (ubiquitin G76V) gene are fused to the N-terminus of the firefly luciferase (FL) gene. The results of this experiment, shown in FIG. 1, reveal that the 4Ub-FL reporter protein is rapidly degraded by the proteasome.
To measure proteasome function in live cells, we utilized an engineered ubiquitin-firefly (4Ub-FL) reporter in which four copies of mutant ubiquitin (ubiquitin G76V) gene are fused to the N-terminus of the firefly luciferase (FL) gene. The 4Ub-FL reporter protein is rapidly degraded by the proteasome (FIG. 6). […] Treatment of Up109 produced a greater increase in the 4Ub-FL bioluminescence in a dose dependent manner.

For test [3], the system named is SKOV3-TR. The experiment in a line: MTT cell viability assay, SKOV3-TR. In kind it is cell-based. Particulars: for difference in activity between SKOV3 and its taxol resistant line (SKOV3-TR): SKOV3 vs SKOV3-TR. As for the experimental part: (§2) Briefly cancer cells incubated with Up compounds for the period of 24 or 48 or 72 hours and the cell viability was measured using MTT assay. IC50 of compounds listed in Table1.
(In general: Tetrazolium assays rely on reduction of a dye to a coloured formazan, in cell work by metabolically active cells.)

For test [4], the system named is K48-linked polyubiquitinated proteins in HeLa cells. Kind of test: anti-K48-linked ubiquitin immunoblot in HeLa cells. In kind it is cell-based. Particulars: 4 hr treatment. From the text:
Accumulation of poly ubiquitinated proteins is a general phenomenon of proteasome inhibition. We examined the impact of these compounds on the levels of polyubiquitinated proteins in HeLa cells by anti-K48-linked ubiquitin immunoblot analysis.
(In general: Immunoblotting shows a protein as a band on a membrane.)

For test [5], the system named is OV2008. The experiment in a line: MTT cell viability assay, OV2008. Type of test: cell-based. The settings on record: OV2008, Ovarian Cancer, 24 or 48 or 72 hours. As for the experimental part: as §2
Test [6] deals with T1, RPN13 (Homo sapiens, UniProt Q16186).
T1 construct: HeLa cell lysate was pretreated with Up109 or Up117; endogenous in cells; host or cells: HeLa cell lysate
T1 sequence (Q16186 whole entry): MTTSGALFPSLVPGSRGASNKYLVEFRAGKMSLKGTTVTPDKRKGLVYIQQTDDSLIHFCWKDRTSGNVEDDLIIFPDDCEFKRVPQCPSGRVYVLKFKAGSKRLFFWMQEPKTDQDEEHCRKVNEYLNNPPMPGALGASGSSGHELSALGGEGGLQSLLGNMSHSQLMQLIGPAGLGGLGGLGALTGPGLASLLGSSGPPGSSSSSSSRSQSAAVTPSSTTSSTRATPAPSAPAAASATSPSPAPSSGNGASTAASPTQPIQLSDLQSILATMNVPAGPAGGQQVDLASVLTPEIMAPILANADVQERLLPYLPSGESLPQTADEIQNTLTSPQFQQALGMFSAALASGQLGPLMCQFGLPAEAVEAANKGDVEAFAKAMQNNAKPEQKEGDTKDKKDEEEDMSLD
The experiment in a line: RA190B probe competition assay, OV2008 cell lysate. In kind it is binding. The settings on record: compound 25 μM, RA190B 5 μM. As for the experimental part: To identify the cellular target, a competition assay was performed using RA190B probe. […] We used RA190B as a probe to determine the Up compounds binding to RPN13. OV2008 cell lysate was pretreated with Up compounds (25 μM) and then subsequently treated with RA190B (5 μM). Lysate was denatured under reduced conditions and proteins were separated on a gel and probed with HRP Streptavidin.

The test system of test [7] is ES2. Kind of test: MTT cell viability assay, ES2. In kind it is cell-based, human. Particulars: ES2, Ovarian Cancer, 24 or 48 or 72 hours. As for the experimental part: as §2
Test [8] has as its system HFF(primary human foreskin fibroblast). Kind of test: MTT cell viability assay, HFF. Type of test: cell-based. Particulars: Normal Cell line, 24 or 48 or 72 hours. The protocol:
as §2

The subject of test [9] is SKOV3. Kind of test: MTT cell viability assay, SKOV3. Particulars: SKOV3, Ovarian Cancer, 24 or 48 or 72 hours. In kind it is cell-based. As for the experimental part: as §2
Test [10] deals with A2780. The experiment in a line: MTT cell viability assay, A2780. Type of test: cell-based. Particulars: A2780, Ovarian Cancer, 24 or 48 or 72 hours. As for the experimental part: as §2
Test [11] deals with HeLa. The experiment in a line: MTT cell viability assay, HeLa. In kind it is cell-based. The settings on record: Cervical Cancer, 24 or 48 or 72 hours. The protocol: as §2
Test [12] deals with DU145. Kind of test: MTT cell viability assay, DU145. In kind it is cell-based. Particulars: DU145, Prostate Cancer, 24 or 48 or 72 hours. As for the experimental part:
as §2

In test [13] the test system is PC-3. The experiment in a line: MTT cell viability assay, PC-3. In kind it is cell-based. The settings on record: PC-3, Prostate Cancer, 24 or 48 or 72 hours. The protocol: as §2
The subject of test [14] is MDA-MB-231. The experiment in a line: MTT cell viability assay, MDA-MB-231. In kind it is cell-based. Particulars: MDA-MB-231, Triple Negative Breast Cancer, 24 or 48 or 72 hours. As for the experimental part: as §2
In test [15] the test system is RPMI8226. Kind of test: MTT cell viability assay, RPMI8226. Type of test: cell-based. The settings on record: RPMI8226, Multiple Myeloma, 24 or 48 or 72 hours. As for the experimental part: as §2
For test [16], the system named is HCC1806. Kind of test: MTT cell viability assay, HCC1806. Type of test: cell-based. Particulars: HCC1806, Triple Negative Breast Cancer, 24 or 48 or 72 hours. The protocol:
as §2

For test [17], the system named is LNCaP. The experiment in a line: MTT cell viability assay, LNCaP. Type of test: cell-based. The settings on record: Prostate Cancer, 24 or 48 or 72 hours. As for the experimental part:
as §2

Test [18] concerns RPMI8226-R. Kind of test: MTT cell viability assay, RPMI8226-R. Type of test: cell-based. Particulars: Multiple Myeloma, 24 or 48 or 72 hours. As for the experimental part:
as §2

The subject of test [19] is HepG2. Kind of test: MTT cell viability assay, HepG2. Type of test: cell-based. The settings on record: HepG2, Liver Cancer, 24 or 48 or 72 hours. As for the experimental part:
as §2

Test [20] deals with HS578T. The experiment in a line: MTT cell viability assay, HS578T. Type of test: cell-based. The settings on record: Triple Negative Breast Cancer, 24 or 48 or 72 hours. As for the experimental part:
as §2

Test [21] deals with T1, RPN13. The experiment in a line: RA190B probe competition assay, HeLa cell lysate. Type of test: binding. The settings on record: HeLa cell lysate pretreated with compound. The protocol: To identify the cellular target, a competition assay was performed using RA190B probe. […] We used RA190B as a probe to determine the Up compound binding to RPN13. HeLa cell lysate was pretreated with Up109 or Up117 and then subsequently treated with RA190B. Lysate was denatured under reduced conditions and proteins were separated on a gel and probed with HRPStreptavidin.

Test [22] relates to OV2008 cancer cells. The experiment in a line: Colony formation, OV2008. Type of test: cell-based. Particulars: corresponding to IC50 values.
Test [23] deals with MM.1S. The experiment in a line: MTT cell viability assay, MM.1S. Type of test: cell-based. The settings on record: Multiple Myeloma, 24 or 48 or 72 hours. As for the experimental part: as §2
Test [24] concerns OVCAR5. The experiment in a line: MTT cell viability assay, OVCAR5. In kind it is cell-based. The settings on record: OVCAR5, Ovarian Cancer, 24 or 48 or 72 hours. The protocol:
as §2

For test [25], the system named is A2780 cancer cells. Kind of test: Colony formation, A2780. The settings on record: corresponding to IC50 values. Type of test: cell-based.
The subject of test [26] is IkB-a in HeLa cells. Kind of test: IkB-a stabilization in HeLa cells with TNF-a. The settings on record: in the presence of TNF-a. In kind it is cell-based.
Text: as §1

`Cl.N[C@@H](Cc1ccccc1)C(=O)N1C/C(=C/c2ccc(Cl)c(Cl)c2)C(=O)/C(=C\c2ccc(Cl)c(Cl)c2)C1` [RA190, reference compound]: in test [1], the “NFκB reporter activity after stimulation with TNF-a” value is “significant dose-dependent decrease”. The “increase in 4Ub-FL bioluminescence compared to before treatment” value in test [2] is recorded as “fivefold increase”.
Turning to `CC(=O)O[C@H]1C(=O)[C@@]2(C)[C@H]([C@H](OC(=O)c3ccccc3)[C@]3(O)C[C@H](OC(=O)[C@H](O)[C@@H](NC(=O)c4ccccc4)c4ccccc4)C(C)=C1C3(C)C)[C@]1(OC(C)=O)CO[C@@H]1C[C@@H]2O` [Taxol, reference compound], the “difference in activity between SKOV3 and its taxol resistant line (SKOV3-TR)” value in test [3] is reported as 7 fold.
Broadly, the pIC50 is the negative decadic logarithm of the IC50, by convention in mol/L. Read a high pIC50 as a small IC50. Consider `O=C(CCl)NC(Cc1ccccc1)C(=O)N1CCC2(CC1)C(=Cc1ccc([N+](=O)[O-])cc1)C(=O)C2=Cc1ccc([N+](=O)[O-])cc1` (stereo not drawn) [Up117], for which the “levels of K48-linked polyubiquitinated proteins” value in test [4] is “dramatically increased”. In test [1], the “NFκB reporter activity after stimulation with TNF-a” value is “significant dose-dependent decrease”. Besides, the negative-log IC50 (pIC50) is 7.33 in test [5]; 7.39 in [7]; under 5.90 in test [8]; 6.80 in test [9]; 7.66 in test [10]; 7.05 in test [11]. Also, the pIC50 in test [12] was 6.89; in test [13] it was 7.13; in test [14] it was 7.25; in test [15] it was 6.85; in test [3] (SKOV3-TR, Ovarian Cancer (taxol resistant), MTT, 24 or 48 or 72 hours), 6.69; in test [16] it was 7.15. Besides, the pIC50 was 7.06 in test [17]; 7.11 in test [18]; 6.35 in test [19]; 7.49 in [20]; 7.38 in [23]; 7.43 in [24]. Further, the “competition with RA190B for binding to RPN13” value is listed as “Disappearance of RA190B labeling” in [6] and “disappearance of RA190B labeling” in test [21]. In [3], the “difference in activity between SKOV3 and its taxol resistant line (SKOV3-TR)” value is listed as “similarly active”. For the same compound, the “4Ub-FL reporter stabilization / bioluminescence increase (qualitative)” value in test [2] (dose dependent) is “greater increase in the 4Ub-FL bioluminescence than RA190”. Moreover, the colony formation result in [22] and in test [25] was “significantly blocked colony formation” each time. Moreover, the “stabilization of IkB-a” value in [26] is “Stabilization of IkB-a was observed”.

Values taken from patent publication US10947199B2, “Spiro and cyclic bis-benzylidene proteasome inhibitor for the treatment of cancer, diabetes and neurological disorders” (UP THERAPEUTICS, INC., priority 2017, dated 2021).
